Legend:
[1] = biological target: T1, MEK5 (Homo sapiens, UniProt Q13163); assay: biochemical; conditions: read-out: % enzyme activity, 1 μM; Run 1, Run 2
T1 sequence (Q13163 1-448): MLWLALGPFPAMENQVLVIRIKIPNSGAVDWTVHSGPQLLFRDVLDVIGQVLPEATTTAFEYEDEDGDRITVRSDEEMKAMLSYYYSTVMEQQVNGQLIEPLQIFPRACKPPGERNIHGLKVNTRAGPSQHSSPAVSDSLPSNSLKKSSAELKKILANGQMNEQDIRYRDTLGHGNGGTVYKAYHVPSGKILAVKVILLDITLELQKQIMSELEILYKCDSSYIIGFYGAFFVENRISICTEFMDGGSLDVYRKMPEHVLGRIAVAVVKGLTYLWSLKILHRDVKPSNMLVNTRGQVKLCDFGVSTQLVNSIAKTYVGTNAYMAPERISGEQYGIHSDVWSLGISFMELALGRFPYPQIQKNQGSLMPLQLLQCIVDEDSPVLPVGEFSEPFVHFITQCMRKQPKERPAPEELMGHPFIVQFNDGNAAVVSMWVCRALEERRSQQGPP

[2] = mouse liver microsomal stability assay; format: in vitro ADME; conditions: male, CD-1, mouse, microsomes, pH 7.4, mouse liver microsomes, 60 min, 37 °C, read-out: MLM % Remaining at 1h
[3] = biological target: PIM2 (Homo sapiens, UniProt Q9P1W9); assay: biochemical; conditions: read-out: % enzyme activity, 1 μM; Run 1, Run 2
Sequence of PIM2 (Q9P1W9 whole entry): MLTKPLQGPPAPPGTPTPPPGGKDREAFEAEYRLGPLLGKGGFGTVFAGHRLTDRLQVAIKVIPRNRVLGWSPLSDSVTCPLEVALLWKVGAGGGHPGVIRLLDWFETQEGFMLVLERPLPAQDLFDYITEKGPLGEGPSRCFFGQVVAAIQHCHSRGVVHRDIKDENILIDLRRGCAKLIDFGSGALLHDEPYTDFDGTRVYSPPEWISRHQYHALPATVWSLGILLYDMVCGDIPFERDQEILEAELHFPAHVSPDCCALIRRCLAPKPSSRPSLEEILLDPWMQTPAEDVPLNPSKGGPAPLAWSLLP

[4] = biological target: T2, DLK/MAP3K12 (Homo sapiens, UniProt Q12852); conditions: 1 μM; Run 1, Run 2
T2 sequence (Q12852 1-859): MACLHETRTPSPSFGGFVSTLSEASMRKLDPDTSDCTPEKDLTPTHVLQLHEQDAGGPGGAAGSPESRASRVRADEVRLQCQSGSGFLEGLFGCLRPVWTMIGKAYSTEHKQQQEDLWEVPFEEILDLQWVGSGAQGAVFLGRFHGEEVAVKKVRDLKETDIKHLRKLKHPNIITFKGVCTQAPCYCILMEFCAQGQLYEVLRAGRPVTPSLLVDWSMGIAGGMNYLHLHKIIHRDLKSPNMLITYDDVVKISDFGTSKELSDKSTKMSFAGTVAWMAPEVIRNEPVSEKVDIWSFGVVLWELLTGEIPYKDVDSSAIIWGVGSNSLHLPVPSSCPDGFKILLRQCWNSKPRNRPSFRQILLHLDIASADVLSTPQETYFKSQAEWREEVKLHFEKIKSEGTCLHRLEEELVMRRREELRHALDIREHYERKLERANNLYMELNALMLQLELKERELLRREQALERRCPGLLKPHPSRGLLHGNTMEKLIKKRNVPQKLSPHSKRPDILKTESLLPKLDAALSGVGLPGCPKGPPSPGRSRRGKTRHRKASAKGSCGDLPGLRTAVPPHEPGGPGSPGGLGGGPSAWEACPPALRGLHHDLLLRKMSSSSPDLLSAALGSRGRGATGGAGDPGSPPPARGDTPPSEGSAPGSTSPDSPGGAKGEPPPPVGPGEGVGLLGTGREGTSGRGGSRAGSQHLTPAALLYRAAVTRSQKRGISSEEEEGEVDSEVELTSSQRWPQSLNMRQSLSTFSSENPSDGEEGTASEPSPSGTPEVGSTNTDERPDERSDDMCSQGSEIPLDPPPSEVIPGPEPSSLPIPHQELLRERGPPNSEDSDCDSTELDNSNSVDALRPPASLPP

[5] = biological target: T3, ALK4/ACVR1B (Homo sapiens, UniProt P36896); assay: 375-member kinase panel; format: biochemical; conditions: Run 1, Run 2; for % enzyme activity: 1 μM; for remaining activity at 1 µM: read-out: % enzyme activity, 1 μM
T3 construct: purchased Reaction Biology Corporation
T3 sequence (P36896 24-505): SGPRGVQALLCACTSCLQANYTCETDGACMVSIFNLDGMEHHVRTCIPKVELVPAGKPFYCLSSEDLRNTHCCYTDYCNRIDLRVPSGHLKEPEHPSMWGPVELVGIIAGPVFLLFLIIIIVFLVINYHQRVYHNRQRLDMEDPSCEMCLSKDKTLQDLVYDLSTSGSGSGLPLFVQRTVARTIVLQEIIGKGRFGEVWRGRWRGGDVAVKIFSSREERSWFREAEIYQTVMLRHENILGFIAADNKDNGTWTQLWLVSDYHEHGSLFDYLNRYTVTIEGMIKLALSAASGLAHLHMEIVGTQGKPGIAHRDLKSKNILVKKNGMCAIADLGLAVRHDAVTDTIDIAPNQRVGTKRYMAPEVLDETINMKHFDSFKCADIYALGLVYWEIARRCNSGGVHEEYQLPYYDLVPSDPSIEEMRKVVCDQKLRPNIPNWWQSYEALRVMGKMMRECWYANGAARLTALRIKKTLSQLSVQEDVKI

Structure (SMILES) | remaining activity at 1 µM [1] [%] | remaining at 1 h, 1 μM [2] [%] | remaining activity at 1 µM [3] [%] | % enzyme activity [4] [%] | % enzyme activity [5] [%] | remaining activity at 1 µM [5] [%]
COc1cc(-c2cncc(-c3ccc(N4CCN(C)CC4)cc3)c2C)cc(F)c1C(N)=O [Compound 26a, 2-Fluoro-6-methoxy-4-(4-methyl-5-(4-(4-methylpiperazin-1-yl)phenyl)pyridin-3-yl)benzamide] | 86.9 | 54.6 | 99.2 | 91.76 | 68.79 | 68.8
COc1cc(-c2cncc(-c3ccc(N4C[C@@H](C)N(C)[C@@H](C)C4)cc3)c2C)cc(F)c1C(N)=O [Compound 26c, 2-Fluoro-6-methoxy-4-(4-methyl-5-(4-((3R,5S)-3,4,5-trimethylpiperazin-1-yl)phenyl)pyridin-3-yl)benzamide] | 93.2 | 48.7 | 99.7 | 97.93 | 81.71 | 82.4
